Experimental data from ChEMBL document CHEMBL3865816, “Design, synthesis and biological evaluation of novel azaspiro analogs of linezolid as antibacterial and antitubercular agents” (Eur J Med Chem, 2016).
Converted amounts (≈) assume the structure as drawn.

Legend:
Assay type in all cases: functional
Pseudomonas aeruginosa [1] = assay: Antibacterial activity against Pseudomonas aeruginosa NCIM 2036 measured after 8 hrs by spectrophotometric method; conditions: NCIM 2036, 8 h
Staphylococcus aureus [2] = assay: Antibacterial activity against Staphylococcus aureus NCIM 2079 measured after 12 hrs by spectrophotometric method; conditions: NCIM 2079, 12 h
Escherichia coli [3] = assay: Antibacterial activity against Escherichia coli NCIM 2688 measured after 8 hrs by spectrophotometric method; conditions: NCIM 2688, 8 h
Bacillus subtilis [4] = assay: Antibacterial activity against Bacillus subtilis NCIM 2010 measured after 12 hrs by spectrophotometric method; conditions: NCIM 2010, 12 h
[5] = system: Mycobacterium tuberculosis; assay: Antitubercular activity against dormant stage Mycobacterium tuberculosis H37Ra measured after 12 days by XTT assay; conditions: 288 h
Escherichia coli [6] = assay: Antibacterial activity against Escherichia coli NCIM 2688 at 30 ug/ml measured after 8 hrs by spectrophotometric method; conditions: NCIM 2688, 8 h
Escherichia coli [7] = assay: Antibacterial activity against Escherichia coli NCIM 2688 at 10 ug/ml measured after 8 hrs by spectrophotometric method; conditions: NCIM 2688, 8 h
Escherichia coli [8] = assay: Antibacterial activity against Escherichia coli NCIM 2688 at 3 ug/ml measured after 8 hrs by spectrophotometric method; conditions: NCIM 2688, 8 h
Pseudomonas aeruginosa [9] = assay: Antibacterial activity against Pseudomonas aeruginosa NCIM 2036 at 30 ug/ml measured after 8 hrs by spectrophotometric method; conditions: NCIM 2036, 8 h
Pseudomonas aeruginosa [10] = assay: Antibacterial activity against Pseudomonas aeruginosa NCIM 2036 at 10 ug/ml measured after 8 hrs by spectrophotometric method; conditions: NCIM 2036, 8 h
Pseudomonas aeruginosa [11] = assay: Antibacterial activity against Pseudomonas aeruginosa NCIM 2036 at 3 ug/ml measured after 8 hrs by spectrophotometric method; conditions: NCIM 2036, 8 h
Staphylococcus aureus [12] = assay: Antibacterial activity against Staphylococcus aureus NCIM 2079 at 30 ug/ml measured after 12 hrs by spectrophotometric method; conditions: NCIM 2079, 12 h
Staphylococcus aureus [13] = assay: Antibacterial activity against Staphylococcus aureus NCIM 2079 at 10 ug/ml measured after 12 hrs by spectrophotometric method; conditions: NCIM 2079, 12 h
Staphylococcus aureus [14] = assay: Antibacterial activity against Staphylococcus aureus NCIM 2079 at 3 ug/ml measured after 12 hrs by spectrophotometric method; conditions: NCIM 2079, 12 h
Bacillus subtilis [15] = assay: Antibacterial activity against Bacillus subtilis NCIM 2010 at 30 ug/ml measured after 12 hrs by spectrophotometric method; conditions: NCIM 2010, 12 h
Bacillus subtilis [16] = assay: Antibacterial activity against Bacillus subtilis NCIM 2010 at 10 ug/ml measured after 12 hrs by spectrophotometric method; conditions: NCIM 2010, 12 h
Bacillus subtilis [17] = assay: Antibacterial activity against Bacillus subtilis NCIM 2010 at 3 ug/ml measured after 12 hrs by spectrophotometric method; conditions: NCIM 2010, 12 h
[18] = system: Mycobacterium tuberculosis; assay: Antitubercular activity against dormant stage Mycobacterium tuberculosis H37Ra at 30 ug/ml measured after 12 days by XTT assay; conditions: 288 h
[19] = system: Mycobacterium tuberculosis; assay: Antitubercular activity against dormant stage Mycobacterium tuberculosis H37Ra at 10 ug/ml measured after 12 days by XTT assay; conditions: 288 h
[20] = system: Mycobacterium tuberculosis; assay: Antitubercular activity against dormant stage Mycobacterium tuberculosis H37Ra at 3 ug/ml measured after 12 days by XTT assay; conditions: 288 h

Compound | IC50 (Pseudomonas aeruginosa [1]) | MIC (Pseudomonas aeruginosa [1]) | IC50 (Staphylococcus aureus [2]) | MIC (Staphylococcus aureus [2]) | IC50 (Escherichia coli [3]) | MIC (Escherichia coli [3]) | IC50 (Bacillus subtilis [4]) | MIC (Bacillus subtilis [4]) | IC50 [5] | MIC [5] | inhibition at 30 µg/mL (Escherichia coli [6]) | inhibition at 10 µg/mL (Escherichia coli [7]) | inhibition at 3 µg/mL (Escherichia coli [8]) | inhibition at 30 µg/mL (Pseudomonas aeruginosa [9]) | inhibition at 10 µg/mL (Pseudomonas aeruginosa [10]) | inhibition at 3 µg/mL (Pseudomonas aeruginosa [11]) | inhibition at 30 µg/mL (Staphylococcus aureus [12]) | inhibition at 10 µg/mL (Staphylococcus aureus [13]) | inhibition at 3 µg/mL (Staphylococcus aureus [14]) | inhibition at 30 µg/mL (Bacillus subtilis [15]) | also measured
N#Cc1ccc(NC(=S)NC[C@H]2CN(c3ccc(N4CC5(COC5)C4)c(F)c3)C(=O)O2)cc1 | > 100 µg/mL | > 100 µg/mL | 1.03 µg/mL (≈ 2.2 µM) | 11.2 µg/mL (≈ 24 µM) | 1 µg/mL (≈ 2.14 µM) | 9.54 µg/mL (≈ 20.4 µM) | 0.86 µg/mL (≈ 1.84 µM) | 3.87 µg/mL (≈ 8.28 µM) | > 100 µg/mL | > 100 µg/mL | 95.7% | 93.2% | 78.2% | 50% | 46.6% | 22.1% | 94.3% | 91.6% | 75.6% | 98% | inhibition at 10 µg/mL (Bacillus subtilis [16]): 97.6%; inhibition at 3 µg/mL (Bacillus subtilis [17]): 81.3%; inhibition at 30 µg/mL [18]: 34.7%; inhibition at 10 µg/mL [19]: 58.1%; inhibition at 3 µg/mL [20]: 34.5%
CC(C)(C)NC(=S)NC[C@H]1CN(c2ccc(N3CC4(COC4)C3)c(F)c2)C(=O)O1 | > 100 µg/mL | > 100 µg/mL | 1.45 µg/mL (≈ 3.43 µM) | 9.15 µg/mL (≈ 21.7 µM) | 1.38 µg/mL (≈ 3.27 µM) | 22.8 µg/mL (≈ 53.9 µM) | > 100 µg/mL | > 100 µg/mL | > 100 µg/mL | > 100 µg/mL | 100% | 84% | 75.7% | 62.7% | 37.5% | 0% | 98.9% | 90.4% | 82.1% | 97.2% | inhibition at 10 µg/mL (Bacillus subtilis [16]): 79.3%; inhibition at 3 µg/mL (Bacillus subtilis [17]): 66.3%; inhibition at 30 µg/mL [18]: -6.69%; inhibition at 10 µg/mL [19]: -3.66%; inhibition at 3 µg/mL [20]: 9.56%
O=C(NC[C@H]1CN(c2ccc(N3CC4(COC4)C3)c(F)c2)C(=O)O1)Nc1ccc(Cl)cc1 | > 100 µg/mL | > 100 µg/mL | > 100 µg/mL | > 100 µg/mL | > 100 µg/mL | > 100 µg/mL | > 100 µg/mL | > 100 µg/mL | > 100 µg/mL | > 100 µg/mL | 59.1% | 31.9% | 7.39% | 62% | 33.1% | 12.4% | 62.1% | 57.3% | 47.4% | 65% | inhibition at 10 µg/mL (Bacillus subtilis [16]): 63.6%; inhibition at 3 µg/mL (Bacillus subtilis [17]): 59.6%; inhibition at 30 µg/mL [18]: 30.2%; inhibition at 10 µg/mL [19]: 25.6%; inhibition at 3 µg/mL [20]: 6.78%
CC(C)NC(=S)NC[C@H]1CN(c2ccc(N3CC4(COC4)C3)c(F)c2)C(=O)O1 | 1.27 µg/mL (≈ 3.11 µM) | 32.3 µg/mL (≈ 79 µM) | > 100 µg/mL | > 100 µg/mL | > 100 µg/mL | > 100 µg/mL | 0.64 µg/mL (≈ 1.57 µM) | 6.04 µg/mL (≈ 14.8 µM) | > 100 µg/mL | > 100 µg/mL | 91.3% | 58.9% | 46.7% | 91.4% | 83.8% | 72.6% | 93% | 75.2% | 58.8% | 99.3% | inhibition at 10 µg/mL (Bacillus subtilis [16]): 95.1%; inhibition at 3 µg/mL (Bacillus subtilis [17]): 82%; inhibition at 30 µg/mL [18]: 48.8%; inhibition at 10 µg/mL [19]: 7.27%; inhibition at 3 µg/mL [20]: -11.7%
O=C1O[C@@H](CNS(=O)(=O)c2ccc(Cl)s2)CN1c1ccc(N2CC3(COC3)C2)c(F)c1 | 1.13 µg/mL (≈ 2.32 µM) | 3.52 µg/mL (≈ 7.21 µM) | 0.46 µg/mL (≈ 0.943 µM) | 1.31 µg/mL (≈ 2.68 µM) | 0.89 µg/mL (≈ 1.82 µM) | 15.4 µg/mL (≈ 31.6 µM) | 0.64 µg/mL (≈ 1.31 µM) | 2.2 µg/mL (≈ 4.51 µM) | > 100 µg/mL | > 100 µg/mL | 97.8% | 87.4% | 80.3% | 99% | 97.1% | 86.6% | 96.9% | 96.5% | 94.3% | 99.2% | inhibition at 10 µg/mL (Bacillus subtilis [16]): 97.2%; inhibition at 3 µg/mL (Bacillus subtilis [17]): 90%; inhibition at 30 µg/mL [18]: 74.6%; inhibition at 10 µg/mL [19]: -6.64%; inhibition at 3 µg/mL [20]: -14.5%
